Converted amounts (≈) assume the structure as drawn. Structures can show the parent of a compound that is named as a salt.
Experiments:
[1] = system: Guinea pig atrium; assay: Positive inotropic activity (contractility of isolated guinea pig atrium); format: cell-based; details: isolated left and right atria, Ringer's solution, 32° C., contractility recorded 7 to 10 minutes; for EC50: Cavia porcellus
Description: Guineapigs of both sexes and weighing 400 g were sacrificed, and the heart was removed and placed in Ringer's solution at room temperature. Both the left and the right atria were then isolated and fixed in an organ holder, and the preparation was placed in an organ bath containing Ringer's solution and maintained at a temperature of 32° C. Carbogen (95% O2 and 5% CO2) was then bubbled through the organ bath. The compound to be tested is dissolved directly in water together with a stoichiometric amount of 0.1N HCL or a salt thereof to give a solution of known concentration and the latter is added to the bath. The contractility of the atrium is recorded for 7 to 10 minutes on a Nihon Kohden 4-channel pen recorder with an isometric strain gage. The activity is expressed on the basis of the resulting data as the EC50.

[2] = system: conscious rabbits; assay: Reduction in intraocular pressure in conscious rabbits; format: in vivo; details: rabbit, instilled into one eye
Description: For this experiment rabbits of both sexes and weighing 2 to 3 kg are used. The intraocular pressure (IOP) is measured with a Schioetz tonometer after corneal anesthesia with 2% strength novocaine solution. […] […] The IOP is measured at defined time intervals, i.e. after 0.5, 1, 2, 3, 4 and 5 hours. The percentage reduction in the IOP is calculated using the baseline value.

[3] = system: cats; assay: Antihypertensive effect: blood pressure in anesthetized cats; format: in vivo; details: anesthetized cat, i.v., 1 mg/kg
Description: Cats of both sexes and weighing 3 to 4 kg were anesthetized with ether and maintained under chloralose anesthesia (70 mg/kg i.v.). Cannulas were placed in the femoral artery and in the femoral vein to record the blood pressure and to administer the medicament, respectively. The blood pressure in the femoral artery was recorded using a Statham P 23 Db pressure transducer on a Nihon-Kohden pen recorder for physiological purposes. The compound to be tested was dissolved, if a salt, in distilled water, otherwise in propylene glycol and administered intravenously. The fall in blood pressure and the duration of the hypotensive activity were determined.

SMILES	EC50 [1] [µg/mL]	further results
C=C[C@@]1(C)CC(=O)[C@@]2(O)[C@](C)(O1)[C@@H](OC(=O)N1CCN(C)CC1)C=C1C(C)(C)CC[C@H](O)[C@@]12C	0.24 (≈ 0.504 µM)	–
C=C[C@@]1(C)CC(=O)[C@@]2(O)[C@](C)(O1)[C@@H](OC(=O)CN1CC(C)OC(C)C1)C=C1C(C)(C)CC[C@H](O)[C@@]12C (some centres unmarked)	0.079 (≈ 0.156 µM)	–
C=C[C@@]1(C)CC(=O)[C@@]2(O)[C@](C)(O1)[C@@H](OC(=O)CCN1CCCCC1)C=C1C(C)(C)CC[C@H](O)[C@@]12C	0.28 (≈ 0.572 µM)	–
C=C[C@@]1(C)CC(=O)[C@@]2(O)[C@](C)(O1)[C@@H](OC(=O)CCN1CCN(C)CC1)C=C1C(C)(C)CC[C@H](O)[C@@]12C	0.3 (≈ 0.594 µM)	–
C=C[C@@]1(C)CC(=O)[C@@]2(O)[C@](C)(O1)[C@@H](OC(=O)CCCN1CCN(C)CC1)C=C1C(C)(C)CC[C@H](O)[C@@]12C	0.12 (≈ 0.231 µM)	–
C=C[C@@]1(C)CC(=O)[C@@]2(O)[C@](C)(O1)[C@@H](OC(=O)CCCCN1CCOCC1)C=C1C(C)(C)CC[C@H](O)[C@@]12C	0.17 (≈ 0.327 µM)	–
C=C[C@@]1(C)CC(=O)[C@@]2(O)[C@](C)(O1)[C@@H](OC(=O)CN1CCSCC1)C=C1C(C)(C)CC[C@H](O)[C@@]12C	0.14 (≈ 0.284 µM)	–
C=C[C@@]1(C)CC(=O)[C@@]2(O)[C@](C)(O1)[C@@H](OC(=O)CN1CCC(O)(c3ccccc3)CC1)C=C1C(C)(C)CC[C@H](O)[C@@]12C	0.3 (≈ 0.528 µM)	–
C=C[C@@]1(C)CC(=O)[C@@]2(O)[C@](C)(O1)[C@@H](OC(=O)COC(=O)CN1CCCCC1)C=C1C(C)(C)CC[C@H](O)[C@@]12C	3 (≈ 5.62 µM)	–
C=C[C@@]1(C)CC(=O)[C@@]2(O)[C@](C)(O1)[C@@H](OC(=O)COC(=O)CN1CCOCC1)C=C1C(C)(C)CC[C@H](O)[C@@]12C	1 (≈ 1.87 µM)	–
C=C[C@@]1(C)CC(=O)[C@@]2(O)[C@](C)(O1)[C@@H](OC(=O)COC(=O)CN1CC(C)OC(C)C1)C=C1C(C)(C)CC[C@H](O)[C@@]12C (some centres unmarked)	0.72 (≈ 1.28 µM)	–
C=C[C@@]1(C)CC(=O)[C@@]2(O)[C@](C)(O1)[C@@H](OC(=O)COC(=O)CN1CCN(C)CC1)C=C1C(C)(C)CC[C@H](O)[C@@]12C	0.44 (≈ 0.802 µM)	–
C=C[C@@]1(C)CC(=O)[C@@]2(O)[C@](C)(O1)[C@@H](OC(=O)COC(=O)CCN1CCN(C)CC1)C=C1C(C)(C)CC[C@H](O)[C@@]12C	1 (≈ 1.78 µM)	–
C=C[C@@]1(C)CC(=O)[C@@]2(O)[C@](C)(O1)[C@@H](OC(=O)N1CCCC1)C=C1C(C)(C)CC[C@H](O)[C@@]12C	–	% decrease in IOD ([2]; dose percentage 1.00): 26.0%; Duration (decrease in IOD) ([2]; dose percentage 1.00): 240 min
C=C[C@@]1(C)CC(=O)[C@@]2(O)[C@](C)(O1)[C@@H](OC(=O)CN1CCOCC1)C=C1C(C)(C)CC[C@H](O)[C@@]12C	–	% decrease in IOD ([2]; dose percentage 2.00): 20.3%; Duration (decrease in IOD) ([2]; dose percentage 2.00): 360 min
C=C[C@@]1(C)CC(=O)[C@@]2(O)[C@](C)(O1)[C@@H](OC(=O)CN1CCCC1)C=C1C(C)(C)CC[C@H](O)[C@@]12C	–	Decrease in BP [3]: 40 mm Hg; Duration (hypotensive activity) [3]: 90 min
C=C[C@@]1(C)CC(=O)[C@@]2(O)[C@](C)(O1)[C@@H](OC(=O)CCCN(C)C)C=C1C(C)(C)CC[C@H](O)[C@@]12C [CO(CH2)3 N(CH3)2, 1α,9α-Dihydroxy-7β-(4-N,N-dimethylaminobutyryloxy)8,13-epoxylabda-5,14-dien-11-one]	0.058 (≈ 0.125 µM)	–
C=C[C@@]1(C)CC(=O)[C@@]2(O)[C@](C)(O1)[C@@H](OC(=O)CCCN(CC)CC)C=C1C(C)(C)CC[C@H](O)[C@@]12C [CO(CH2)3 NEt2, 1α,9α-Dihydroxy-7β-(4-diethylaminobutyryloxy)-8,13-epoxylabda-5,14-dien-11-one]	0.037 (≈ 0.0753 µM)	–

SMILES	EC50 [1] [µg/mL]	further results
C=C[C@@]1(C)CC(=O)[C@@]2(O)[C@](C)(O1)[C@@H](OC(=O)CCCCN(C)C)C=C1C(C)(C)CC[C@H](O)[C@@]12C [CO(CH2)4 NMe2, 1α,9α-Dihydroxy-7β-(5-dimethylaminovaleryloxy)-8,13-epoxylabda-5,14-dien-11-one]	0.755 (≈ 1.58 µM)	Guinea pig atrium EC50 [1]: 0.615 µg/mL
C=C[C@@]1(C)CC(=O)[C@@]2(O)[C@](C)(O1)[C@@H](OC(=O)CN(CC)CC)C=C1C(C)(C)CC[C@H](O)[C@@]12C [COCH2 N(C2 H5)2, 7β-Diethylaminoacetoxy-1α,9α-dihydroxy-8,13-epoxy-labd-5,14-dien-11-one hydrochloride]	0.72	Decrease in BP [3]: 36 mm Hg; Duration (hypotensive activity) [3]: > 60 min
C=C[C@@]1(C)CC(=O)[C@@]2(O)[C@](C)(O1)[C@@H](OC(=O)COC=O)C=C1C(C)(C)CC[C@H](O)[C@@]12C [COCH2 OCHO, 1α,9α-dihydroxy-8,13-epoxy-7β-formyloxyacetoxylabda-5,14-dien-11-one]	0.024 (≈ 0.055 µM)	–
C=C[C@@]1(C)CC(=O)[C@@]2(O)[C@](C)(O1)[C@@H](OC(=O)COC(=O)CN(CC)CC)C=C1C(C)(C)CC[C@H](O)[C@@]12C [COCH2 OCOCH2 NEt2, hydrochloride hydrate]	0.018	–
C=C[C@@]1(C)CC(=O)[C@@]2(O)[C@](C)(O1)[C@@H](OC(=O)COC(=O)CN(C)C)C=C1C(C)(C)CC[C@H](O)[C@@]12C [COCH2 OCOCH2 NMe2, 1α,9α-Dihydroxy-7β-(N,N-dimethylaminoacetoxy)acetoxy-8,13-epoxy-labd-5,14-dien-11-one hydrochloride]	0.8	–
C=C[C@@]1(C)CC(=O)[C@@]2(O)[C@](C)(O1)[C@@H](OC(C)=O)C=C1C(C)(C)CC[C@H](O)[C@@]12C [COCH3]	0.028 (≈ 0.0713 µM)	–
C=C[C@@]1(C)CC(=O)[C@@]2(O)[C@](C)(O1)[C@@H](OC(N)=O)C=C1C(C)(C)CC[C@H](O)[C@@]12C [CONH2, 7β-Amino-carbonyloxy-1α,9α-dihydroxy-8,13-epoxy-labd-5,14-dien-11-one]	–	% decrease in IOD ([2]; dose percentage 1.00): 30.0%; Duration (decrease in IOD) ([2]; dose percentage 1.00): > 360 min
C=C[C@@]1(C)CC(=O)[C@@]2(O)[C@](C)(O1)[C@@H](OC(=O)NCCCC)C=C1C(C)(C)CC[C@H](O)[C@@]12C [CONH(CH2)3 CH3]	–	% decrease in IOD ([2]; dose percentage 1.00): 27.0%; Duration (decrease in IOD) ([2]; dose percentage 1.00): > 360 min
C=C[C@@]1(C)CC(=O)[C@@]2(O)[C@](C)(O1)[C@@H](OC(=O)NC)C=C1C(C)(C)CC[C@H](O)[C@@]12C [CONHCH3]	0.051 (≈ 0.125 µM)	% decrease in IOD ([2]; dose percentage 1.00): 24.0%; Duration (decrease in IOD) ([2]; dose percentage 1.00): > 360 min
C=C[C@@]1(C)CC(=O)[C@@]2(O)[C@](C)(O1)[C@@H](OC(=O)[C@H](O)CO)C=C1C(C)(C)CC[C@H](O)[C@@]12C [drawing 82]	0.0008 (≈ 0.00182 µM)	–
C=C[C@@]1(C)CC(=O)[C@@]2(O)[C@](C)(O1)[C@@H](OC(=O)N1CCOCC1)C=C1C(C)(C)CC[C@H](O)[C@@]12C [drawing 83]	0.3 (≈ 0.647 µM)	–
C=C[C@@]1(C)CC(=O)[C@@]2(O)[C@](C)(O1)[C@@H](OC(=O)CN1CCCCC1)C=C1C(C)(C)CC[C@H](O)[C@@]12C [drawing 92]	0.072 (≈ 0.151 µM)	–
C=C[C@@]1(C)CC(=O)[C@@]2(O)[C@](C)(O1)[C@@H](OC(=O)[C@H](O)CO)C=C1C(C)(C)CC[C@H](O)[C@@]12C [drawing 101]	–	% decrease in IOD ([2]; dose percentage 0.25): 35.0%; Duration (decrease in IOD) ([2]; dose percentage 0.25): > 360 min
C=C[C@@]1(C)CC(=O)[C@@]2(O)[C@](C)(O1)[C@@H](OC(=O)CN1CCN(C)CC1)C=C1C(C)(C)CC[C@H](O)[C@@]12C [drawing 104]	–	% decrease in IOD ([2]; dose percentage 2.00): 23.9%; Duration (decrease in IOD) ([2]; dose percentage 2.00): 360 min
C=C[C@@]1(C)CC(=O)[C@@]2(O)[C@](C)(O1)[C@@H](OC(=O)N1CCOCC1)C=C1C(C)(C)CC[C@H](O)[C@@]12C [drawing 106]	–	Decrease in BP [3]: 32 mm Hg; Duration (hypotensive activity) [3]: 45 min
C=C[C@@]1(C)CC(=O)[C@@]2(O)[C@](C)(O1)[C@@H](OC(=O)CN1CCCCC1)C=C1C(C)(C)CC[C@H](O)[C@@]12C [drawing 107]	–	Decrease in BP [3]: 30 mm Hg; Duration (hypotensive activity) [3]: 90 min
C=C[C@@]1(C)CC(=O)[C@@]2(O)[C@](C)(O1)[C@@H](OC(=O)CN1CCN(C)CC1)C=C1C(C)(C)CC[C@H](O)[C@@]12C [drawing 108]	–	Decrease in BP [3]: 40 mm Hg; Duration (hypotensive activity) [3]: > 120 min

From patent US5252598A, “Labdane derivatives, a process for their preparation, and their use as medicaments” (Hoechst Aktiengesellschaft, priority 1987, dated 1993)
